Laboratory results as given in ChEMBL document CHEMBL1144599, “In vitro antimalarial activity of hyperforin, a prenylated acylphloroglucinol. A structure-activity study” (Bioorg Med Chem Lett, 2007).
pIC50: −log10 of the molar value. Counter-ions that a name gives are not always drawn.

Experiments:
[1] = tested on: Plasmodium falciparum; assay: Antiplasmodial activity after 48 hrs against Plasmodium falciparum K1 in human erythrocytes; format: functional, organism-based
[2] = tested on: L6; assay: Cytotoxicity against rat L6 cells after 72 hrs; format: cell-based
[3] = Plasmodium falciparum, K1, 48 h

Row | Compound | pIC50 [1, 3] | pIC50 ([2]; Rattus norvegicus, L6, 72 h) | pIC50 ([2]; l6) | pIC50 [1]
1 | CC(=O)C1=C(O)C=C2Oc3c(C(C)=O)c(O)c(C)c(O)c3[C@@]2(C)C1=O [(+)-USNIC ACID] | 4.82 |  |  | 
2 | CC(C)=CCC[C@]1(C)[C@@H](CC=C(C)C)C[C@]2(CC=C(C)C)C(=O)C(CC=C(C)C)=C(O)[C@@]1(C(=O)C(C)C)C2=O [listing 1 of 2 here] |  |  | 5.48 | 5.68
3 | CC(C)=CCC[C@]1(C)[C@@H](CC=C(C)C)C[C@]2(CC=C(C)C)C(=O)C(C)(CC=C(C)C)C(=O)[C@@]1(C(=O)C(C)C)C2=O (stereo not given in full) | < 4.57 |  |  | 
4 | CC(C)CCC[C@]1(C)[C@@H](CCC(C)C)C[C@@]2(CCC(C)C)C(=O)[C@]1(C(=O)C(C)C)C(=O)C(CCC(C)C)=C2O [OCTAHYDROHYPERFORIN] | 5.57 | 5.67 |  | 
5 | CC(C)=CCC[C@]1(C)[C@@H](CC=C(C)C)C[C@@]2(CC=C(C)C)C(=O)[C@]1(C(=O)C(C)C)C(=O)C1=C2OC(C)(C)C=C1 [DEHYDROHYPERFORIN] | 5.07 |  |  | 
6 | COC1=C(CC=C(C)C)C(=O)[C@@]2(C(=O)C(C)C)C(=O)[C@]1(CC=C(C)C)C[C@H](CC=C(C)C)[C@@]2(C)CCC=C(C)C | 5.11 |  |  | 
7 | CC(C)=CCC[C@]1(C)[C@@H](CC=C(C)C)C[C@]2(CC=C(C)C)C(=O)C(CC=C(C)C)=C(O)[C@@]1(C(=O)C(C)C)C2=O [listing 2 of 2 here] | 5.82 | 5.66 |  | 
8 | COc1cc(C(=O)OC2=C(CC=C(C)C)C(=O)[C@@]3(C(=O)C(C)C)C(=O)[C@]2(CC=C(C)C)C[C@H](CC=C(C)C)[C@@]3(C)CCC=C(C)C)cc(OC)c1OC [HYPERFORINTRIMETHOXYBENZOATE] | < 4.57 |  |  | 
9 | CC(C)CCC[C@]1(C)[C@@H](CCC(C)C)C[C@@]2(CCC(C)C)C(=O)[C@]1(C(=O)C(C)C)C(=O)C(CCC(C)C)=C2O [OCTAHYDROHYPERFORIN DICYCLOHEXYLAMMONIUM SALT] |  |  | 5.51 | 5.85
10 | CC(=O)C1=C(O)C=C2Oc3c(C(C)=O)c(O)c(C)c(O)c3C2(C)C1=O (stereo not given) | 4.79 |  |  | 

Continued, in another order:

Row | pIC50 [1, 3] | Compound | pIC50 ([2]; Rattus norvegicus, L6, 72 h) | pIC50 ([2]; l6) | pIC50 [1]
11 | 5.70 | CC(C)=CCC[C@]1(C)[C@@H](CC=C(C)C)C[C@]2(CC=C(C)C)C(=O)[C@@]3(CC=C(C)C)O[C@@]2(O)[C@]1(C(=O)C(C)C)C3=O [HYPERFORINHEMIACETAL] | 4.79 |  | 
12 | 5.17 | CC(C)=CCC[C@]1(C)[C@@H](CC=C(C)C)C[C@]2(CC=C(C)C)C(=O)C(Cl)(CC=C(C)C)C(=O)[C@@]1(C(=O)C(C)C)C2=O (stereo not given in full) |  |  | 
13 | 6.22 | CC(C)=CCC[C@]1(C)[C@@H](CC=C(C)C)C[C@]2(CC=C(C)C)C(=O)[C@@](O)(CC=C(C)C)C(=O)[C@@]1(C(=O)C(C)C)C2=O | 4.71 |  | 
14 | 5.77 | CC(C)=CCC[C@]1(C)[C@@H](CC=C(C)C)C[C@]23CC(C(C)(C)O)OC2=C(CC=C(C)C)C(=O)[C@@]1(C(=O)C(C)C)C3=O (stereo not given in full) [FUROHYPERFORIN] | 4.79 |  | 
15 | 5.42 | CC(C)=C/C=C1/OC(=O)[C@@]2(CC=C(C)C)C[C@H](CC=C(C)C)[C@@](C)(CCC=C(C)C)[C@H](C(=O)C(C)C)C(=O)[C@@]12O | 4.44 |  | 
16 | 5.32 | CC(C)=CCC[C@]1(C)[C@@H](CC=C(C)C)C[C@@]2(CC=C(C)C)C(=O)[C@]1(C(=O)C(C)C)C(=O)C(CC=C(C)C)=C2OC(=O)c1cccnc1 [HYPERFORINNICOTINATE] | 4.62 |  | 
